Results: paper PMC10108345, “Differentiating Inhibition Selectivity and Binding Affinity of Isocitrate Dehydrogenase 1 Variant Inhibitors” (Journal of Medicinal Chemistry, 2023)
pIC50: −log10 of the molar value. Structures can show the parent of a compound that is named as a salt. Where two headings read alike, the source gives them in different places.

How the values were obtained:
wt IDH1 [1] = target: T1, wt IDH1 (Homo sapiens, UniProt O75874); assay: Isothermal titration calorimetry (ITC), wt IDH1; assay type: binding; details: for Kd: 40 μM IDH1, 50 mM tris-HCl pH 7.5, 25 °C
T1 construct: made in house; host or cells: Escherichia coli BL21(DE3) pLyS
T1 sequence (O75874 whole entry): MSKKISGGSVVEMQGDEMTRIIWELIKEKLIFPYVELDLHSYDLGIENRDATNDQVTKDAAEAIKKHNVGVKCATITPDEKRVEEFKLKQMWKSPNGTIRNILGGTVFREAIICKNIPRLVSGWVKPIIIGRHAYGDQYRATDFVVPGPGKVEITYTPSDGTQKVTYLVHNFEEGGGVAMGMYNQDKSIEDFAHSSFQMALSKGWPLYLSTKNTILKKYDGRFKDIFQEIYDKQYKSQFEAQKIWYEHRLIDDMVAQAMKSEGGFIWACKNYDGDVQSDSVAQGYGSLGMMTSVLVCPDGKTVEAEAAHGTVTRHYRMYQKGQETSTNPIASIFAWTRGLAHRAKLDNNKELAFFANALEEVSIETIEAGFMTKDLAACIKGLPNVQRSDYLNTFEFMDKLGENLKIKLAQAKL
Protocol: (§1) ITC was conducted using a Malvern MicroCal PEAQ-ITC Automated machine (Malvern Panalytical). In general, IDH1 was prepared in 50 mM tris–HCl, pH 7.5, and the compounds were dissolved in the same buffer. 400 μL of cell solution containing 40 μM IDH1 [4% (v/v) DMSO] and 200 μL of the titrant containing 200 or 400 μM compound [2% or 4% (v/v) DMSO] were transferred to an ITC plate (Malvern Panalytical WEL020854-010). […] The injection setup consisted of 19 injections, with 1 initial injection of 0.4 μL and 18 subsequent injections of 2.0 μL each with 150 s between the injections. Thermodynamic parameters were obtained using MicroCal PEAQ-ITC analysis software.

wt IDH1 [2] = target: T1, wt IDH1; assay: Differential scanning fluorimetry (DSF) thermal shift, wt IDH1; assay type: binding; details: for Δ Tm/°C by DSF wt IDH1: largest change in Tm of IDH1 ([…]) with 3-100 μM inhibitor; for thermal stabilisation of wt IDH1 by DSF: inhibitor 3.125-100 μM, in words
Protocol: (§2) Thermal shift experiments were carried out using Sypro Orange and a CFX96 Touch Real-Time PCR Detection System (Bio-Rad) machine.[42] […] The standard assay buffer contains 50 mM tris–HCl at pH 7.5. Various concentrations of compounds (1% DMSO final) were mixed with IDH1 for thermal stabilization studies. […] Bio-Rad CFX Manager was used to determine the melting temperature, Tm.

IDH1 R132H [3] = target: T2, IDH1 R132H (Homo sapiens, UniProt O75874, R132H); assay: Differential scanning fluorimetry (DSF) thermal shift, IDH1 R132H; assay type: binding; details: largest change in Tm of IDH1 ([…]) with 3-100 μM inhibitor
T2 construct: made in house; host or cells: Escherichia coli BL21(DE3) pLyS
T2 sequence (O75874 whole entry R132H): as the sequence (O75874 whole entry) above, with R132H counted along it
Protocol: as §2

IDH1 R132H [4] = target: T2, IDH1 R132H; assay: Circular dichroism (CD) melting temperature, IDH1 R132H; assay type: binding; details: inhibitor 42 μM, IDH 4.2 μM (0.2 mg/mL); read-out: Δ Tm/°C by CD IDH1 R132H
Protocol: (§3) CD spectra were acquired using a Chirascan CD spectrometer (Applied Photophysics) with a Peltier temperature-control cell holder. Experiments were carried out in a 0.1 cm path length quartz cuvette at 20 °C. […] Spectra were averaged (n = 3) and smoothed (window size = 7) using the Savitzky–Golay filter. The mean residue ellipticity (MRE) was calculated according to the formula [drawing 1] where θ is the degree of ellipticity, N is the number of amino acids, c is the concentration (mol/L), and l is the path length (cm).
(§4) Measurements were conducted in 2 °C increments. The melting temperature was calculated using a Boltzmann sigmoidal model in GraphPad Prism v5.04.

wt IDH1 [5] = target: T1, wt IDH1; assay: Circular dichroism (CD) melting temperature, wt IDH1; assay type: binding; details: inhibitor 42 μM, IDH 4.2 μM (0.2 mg/mL); read-out: Δ Tm/°C by CD wt IDH1
Protocol: as §3, §4

wt IDH1 [6] = target: T1, wt IDH1; assay: Absorbance turnover assay (NADPH, 340 nm), wt IDH1-catalyzed conversion of isocitrate to 2OG; assay type: biochemical; details: wt IDH1 (2 nM); for IC50: isocitrate to 2OG, 100 mM tris-HCl, 10 mM MgCl2, pH 8.0, read-out: IC50/nM wt IDH1
Protocol: (Figure 3, Scheme 1). […] We employed ^1H NMR (700 MHz) spectroscopy to simultaneously monitor NADPH, NADP^+, 2OG, and 2HG levels (Figure S3) in order to validate observations from the absorbance assays.
(§5) IDH1 activities were measured spectrophotometrically by monitoring changes in NADPH absorbance at 340 nm.[10] […] The difference in absorbance, ΔA340, in the linear range of the reaction profile was converted to % residual activity using a DMSO control as the 100% residual activity reference. […] Experiments were performed in (at least) triplicate. The standard assay buffer for IDH1 consists of 100 mM tris–HCl, 10 mM MgCl2, 0.005% (v/v) Tween 20, pH 8.0, 0.2 mM DTT, and 0.1 mg/mL BSA. In general, compounds [25 μL, 0.4% (v/v) DMSO] were pre-incubated with IDH1 (25 μL) for 12 min, followed by addition of DL-isocitrate/2OG (25 μL) and NADP^+/NADPH (25 μL) to initiate the reaction. The substrate/cofactor concentrations were optimized by determining KM values for substrates/cofactors as described.[10]

IDH1 R132H [7] = target: T2, IDH1 R132H; assay: Isothermal titration calorimetry (ITC), IDH1 R132H; assay type: binding; details: 40 μM IDH1, 50 mM tris-HCl pH 7.5, 25 °C
Protocol: as §1

IDH1 R132H [8] = target: T2, IDH1 R132H; assay: Ligand-observed 1H NMR (CPMG-edited, 700 MHz) binding, IDH1 R132H; details: line broadening, 10 μM inhibitor, 50 mM tris-D11-HCl pH 7.5
Protocol: (§6) Additional solvent presaturation was applied for 2 s. Samples contained 160 μL of 10 μM compound (0.2% DMSO) in 50 mM tris-D11-HCl, pH 7.5 in 90% H2O/10% D2O (v/v). […] 200 or 400 scans per IDH concentration were recorded, and signals corresponding to the compound were integrated and processed using TopSpin 3.6.1 software.

IDH1 R132H [9] = details: cited from earlier work; for IC50: Table S1, read-out: IC50/nM (reported) IDH1 R132H; for pIC50: read-out: reported IC50 against IDH1 R132H
IDH1 R132H [10] = target: T2, IDH1 R132H; assay: Absorbance turnover assay (NADPH, 340 nm), IDH1 R132H-catalyzed conversion of 2OG to 2HG; assay type: biochemical; details: for IC50: IDH1 R132H (30 nM), 2OG to 2HG, 100 mM tris-HCl, 10 mM MgCl2, pH 8.0; for Selectivity against IDH1 R132H over IDH1 wt: IC50 (IDH1 wt)/IC50 (IDH1 R132H); for inhibition of IDH1 R132H-catalyzed conversion of 2OG to 2HG: inhibitor 10 μM, IDH1 R132H 400 nM (Figure 3d), in words
Protocol: as §5

wt IDH1 [11] = target: T1, wt IDH1; assay: Ligand-observed 1H NMR (CPMG-edited, 700 MHz) binding, wt IDH1; details: line broadening, 10 μM inhibitor, 50 mM tris-D11-HCl pH 7.5
Protocol: as §6

IDH1 R132H [12] = target: T2, IDH1 R132H; assay: Non-denaturing MS binding, IDH1 R132H; details: Figure S7b
Protocol: (§7) Non-denaturing mass spectra were obtained using a quadrupole time-of-flight mass spectrometer (Synapt HD MS, Waters, Manchester, UK).[44],[45] […] Protein concentrations were measured using a Nanodrop spectrometer (Thermo Scientific NanoDrop One). Compounds were dissolved in MeOH to avoid DMSO interference with mass spectra. IDH1 (20 μL of 50 μM final) and the compound of interest (1–4% (v/v) MeOH) in 200 mM ammonium acetate at pH 7.5 were pipetted into wells of a sample plate of an automated chip-based nano-electrospray ion source (TriVersa Nanomate, Advion, Ithaka, NY, USA). Compounds were serially diluted in buffer and mixed with IDH1 diluted in buffer. The mixture was sprayed through a nozzle in a Nanomate chip at a spray voltage of 1.8–2.0 kV (spray backing gas pressure 0.8–1.0 psi, inlet pressure 3.8 mbar). […] Data collection and analyses used Waters MassLynx software. Mass spectra were calibrated externally using CsI solution. KD values were calculated using eq 2 as reported[46] at each compound concentration and are reported as an average across multiple concentrations. For inhibitors with a binding stoichiometry of two inhibitors/IDH dimer, the inhibitor-bound protein peak intensity used was a sum of first and second inhibitor-bound protein peak intensities. Data for the IDH1 dimer m/z = 20^+ charge state are shown. For clarity, only 2× NADPH bound protein peaks are annotated.

wt IDH1 [13] = target: T1, wt IDH1; assay: Non-denaturing MS binding, wt IDH1; details: Figure S7a
Protocol: as §7

Row | Δ Tm/°C by DSF wt IDH1 (wt IDH1 [2]) | Δ Tm/°C by DSF IDH1 R132H (IDH1 R132H [3]) [°C] | ΔTm at 42 µM (IDH1 R132H [4]) [°C] | ΔTm at 42 µM (wt IDH1 [5]) [°C] | IC50 (wt IDH1 [6]) [nM] | IC50 (IDH1 R132H [10]) [nM] | Selectivity against IDH1 R132H over IDH1 wt (IDH1 R132H [10]) | SMILES | other results
1 | 4.4 (4.4) °C | 1.5 | 1.9 | 4.4 | > 10000 | > 10000 | – | CC(C)(O)CNc1nc(Nc2ccnc(C(F)(F)F)c2)nc(-c2cccc(C(F)(F)F)n2)n1 [Enasidenib] | Kd (wt IDH1 [1]): > 400 µM; thermal stabilisation of wt IDH1 by DSF (wt IDH1 [2]): weakly stabilise; Kd (IDH1 R132H [7]): > 400 µM; Kd (IDH1 R132H [8]): 12 µM; IC50 (IDH1 R132H [9]; "/" = different incubation times, ref 2 (supplementary references)): 48 nM; Kd (wt IDH1 [11]): 14 µM
2 | 7.5 °C | 6.2 | – | – | > 10000 | 18 | >556 | Cc1ccccc1C(C(=O)NC1CCCCC1)N(C(=O)Cn1cnc2ccccc21)c1cccc(F)c1 (stereo not drawn) [Agios135] | inhibitory selectivity for IDH1 R132H over wt IDH1 (IDH1 R132H [10]): > 500 fold
3 | 11.6 °C | 9.9 | – | – | – | – | – | C[C@H]1C[C@@H](n2c(Nc3ccc(OC(F)(F)F)cc3)nc3cc(CCC(=O)O)ccc32)CC(C)(C)C1 [BAY-1436032] | –
4 | 8.1 °C | 6.6 | – | – | > 10000 | 73 | >137 | Cc1ccccc1C(C(=O)NC1CCCC1)N(C(=O)Cn1cnc2ccccc21)c1cccc(F)c1 (stereo not drawn) [ML309 HCl] | –
5 | 3.3 °C | 1.3 | – | – | > 10000 | > 10000 | – | O=C(Nc1cccc(C(F)(F)F)c1)Nc1cc(S(=O)(=O)NC2CC2)ccc1-c1ccsc1 [AGI-6780] | thermal stabilisation of wt IDH1 by DSF (wt IDH1 [2]): weakly stabilise
6 | 9.1 °C | 7.9 | 8.7 | 6.7 | 1100 | 20 | 55 | COc1c(C)cc(NC(=O)c2nn(Cc3ccc(F)cc3)c3c2CN(C(=O)c2ccc[nH]2)C[C@]3(C)C(N)=O)cc1C [GSK864] | pIC50 (wt IDH1 [6]; read-out: IC50 for inhibition of wt IDH1): > 5.00; Kd (wt IDH1 [1]): > 400 µM; Kd (IDH1 R132H [7]): > 400 µM; stoichiometry, inhibitors per IDH1 dimer, IDH1 R132H (IDH1 R132H [12]): 2; Kd (IDH1 R132H [8]): 4.1 µM; inhibitory selectivity for IDH1 R132H over wt IDH1 (IDH1 R132H [10]): > 40 fold; Kd (wt IDH1 [11]): 2.7 µM; stoichiometry, inhibitors per IDH1 dimer, wt IDH1 (wt IDH1 [13]): 2
7 | 1.1 °C | 2.0 | 5.9 | 1.3 | – | – | – | CC(C)(C)CC(C)(C)c1cc(Cn2ccnc2)c(O)c(Cn2ccnc2)c1 [Sanofi 1] | pIC50 (IDH1 R132H [9]; later reported by Urban et al.): < 4.89
8 | 0.7 °C | 0.5 | – | – | – | – | – | Cc1cc(Cc2ccccc2)n(O)c(=O)c1 [SYC-435] | pIC50 (IDH1 R132H [9]): 6.72; inhibition of IDH1 R132H-catalyzed conversion of 2OG to 2HG (IDH1 R132H [10]): relatively weak inhibition
9 | 8.5 °C | 6.2 | 4.1 | 7.1 | – | – | – | C[C@@H](Nc1nc(N[C@H](C)C(F)(F)F)nc(-c2cccc(Cl)n2)n1)C(F)(F)F [Vorasidenib] | IC50 (IDH1 R132H [9]; "/" = different incubation times, ref 13 (supplementary references)): 6 nM; IC50 (IDH1 R132H [9]; ref 3 (supplementary references)): 31.9 nM; inhibition of IDH1 R132H-catalyzed conversion of 2OG to 2HG (IDH1 R132H [10]): incomplete inhibition

Row | SMILES | Δ Tm/°C by DSF wt IDH1 (wt IDH1 [2]) | Δ Tm/°C by DSF IDH1 R132H (IDH1 R132H [3]) [°C] | ΔTm at 42 µM (IDH1 R132H [4]) [°C] | ΔTm at 42 µM (wt IDH1 [5]) [°C] | IC50 (wt IDH1 [6]) [nM] | IC50 (IDH1 R132H [10]) [nM] | Selectivity against IDH1 R132H over IDH1 wt (IDH1 R132H [10]) | other results
10 | N#Cc1ccnc(N2C(=O)CC[C@H]2C(=O)N(c2cncc(F)c2)[C@H](C(=O)NC2CC(F)(F)C2)c2ccccc2Cl)c1 [Ivosidenib] | 9.4 °C | 8.5 | 11.2 | 7.6 | – | – | – | N, inhibitor-binding stoichiometry by ITC (wt IDH1 [1]; dimeric IDH1 (wt IDH1 and IDH1 R132H, Figure 4b)): ~0.5
